According to patent US9808512B2, “Anti-cell proliferative compounds and methods of use” (KALOS Therapeutics, priority 2007, dated 2017):
Several values for one entry are separate records, joined by “and”; a condition that tells them apart may be missing. Equal values may be shown once. Entries after “also recorded” stand apart in the source; their conditions may differ.

Legend:
[1] = tested on: Human Pancreatic Adenocarcinoma Cells (HPAC); experiment: HPAC cell viability, Calbiochem Rapid Cell Proliferation Kit, optical density at 450 nm; assay type: cell-based; details: 48 hours; for Optical Densities in 96_Well Plate, Average: average of 5 replicate wells; for Optical Densities in 96_Well Plate: single replicate wells
Description: Human Pancreatic Adenocarcinoma Cells (HPAC) cells were obtained from ATCC and propagated in Dulbecco's modified Eagle's medium and Ham's F12 medium (DME-F12) (1:1) containing 2.5 mM glutamine, […], 5 ug/mL transferrin, 1 ng/mL EGF (epidermal growth factor), plus 5% FBS (fetal bovine serum). Cell cultures were incubated at 37° C., 5% CO2 in a 100% humidity atmosphere. The cells were routinely brought to confluence in T-flasks, rinsed with phosphate buffered saline (PBS), and treated with trypsin for 5 min at room temp. The trypsinized cells were rinsed from the plate with 10 mL medium and counted. Viability at subculturing was generally ≧95%.
Approximately 10,000 cells in 100 uL of medium were placed in each well of a 96-well plate and incubated over night. Peptides having the following sequences were used: Arg-15-Cys (RSSCAGAALSPLGAC; SEQ. ID NO:122); Pro-15-Val (PNEEAGAALSPLPEV; SEQ. ID NO:121); Ala-8-Leu (AGAALSPL; SEQ. ID NO:85); C-ANP 4-23 ([…]; SEQ. ID NO:124) and, VDL ([…]; SEQ. ID NO:125). The peptides were dissolved in PBS and sterile filtered. The peptides were diluted into the cell culture medium to the following final concentrations: 1, 0.3, 0.1, 0.03, and 0.01 uM. Each peptide was tested in 5 replicate wells. The cultures were incubated for an additional 48 hours at 37° C.
The viability of the cells was determined using a Calbiochem Rapid Cell Proliferation Kit (catalog number QIA127). Ten uL of Calbiochem color reagent was added to each well and incubated for an additional 1.5 hours at 37° C. Optical densities were read at 450 nm using a Molecular Devices ThermoMax microplate reader. The plate template is shown in Table I (unlabeled wells contained cells but no peptide and were used as blanks). Results are presented in Table I, and are graphically illustrated in FIGS. 1 and 2.

cancer cells = details: known natriuretic peptides; cited from earlier work
NPRA = target: T1, NPRA (Homo sapiens, UniProt P16066); details: cited from earlier work
T1 sequence (P16066 33-1061): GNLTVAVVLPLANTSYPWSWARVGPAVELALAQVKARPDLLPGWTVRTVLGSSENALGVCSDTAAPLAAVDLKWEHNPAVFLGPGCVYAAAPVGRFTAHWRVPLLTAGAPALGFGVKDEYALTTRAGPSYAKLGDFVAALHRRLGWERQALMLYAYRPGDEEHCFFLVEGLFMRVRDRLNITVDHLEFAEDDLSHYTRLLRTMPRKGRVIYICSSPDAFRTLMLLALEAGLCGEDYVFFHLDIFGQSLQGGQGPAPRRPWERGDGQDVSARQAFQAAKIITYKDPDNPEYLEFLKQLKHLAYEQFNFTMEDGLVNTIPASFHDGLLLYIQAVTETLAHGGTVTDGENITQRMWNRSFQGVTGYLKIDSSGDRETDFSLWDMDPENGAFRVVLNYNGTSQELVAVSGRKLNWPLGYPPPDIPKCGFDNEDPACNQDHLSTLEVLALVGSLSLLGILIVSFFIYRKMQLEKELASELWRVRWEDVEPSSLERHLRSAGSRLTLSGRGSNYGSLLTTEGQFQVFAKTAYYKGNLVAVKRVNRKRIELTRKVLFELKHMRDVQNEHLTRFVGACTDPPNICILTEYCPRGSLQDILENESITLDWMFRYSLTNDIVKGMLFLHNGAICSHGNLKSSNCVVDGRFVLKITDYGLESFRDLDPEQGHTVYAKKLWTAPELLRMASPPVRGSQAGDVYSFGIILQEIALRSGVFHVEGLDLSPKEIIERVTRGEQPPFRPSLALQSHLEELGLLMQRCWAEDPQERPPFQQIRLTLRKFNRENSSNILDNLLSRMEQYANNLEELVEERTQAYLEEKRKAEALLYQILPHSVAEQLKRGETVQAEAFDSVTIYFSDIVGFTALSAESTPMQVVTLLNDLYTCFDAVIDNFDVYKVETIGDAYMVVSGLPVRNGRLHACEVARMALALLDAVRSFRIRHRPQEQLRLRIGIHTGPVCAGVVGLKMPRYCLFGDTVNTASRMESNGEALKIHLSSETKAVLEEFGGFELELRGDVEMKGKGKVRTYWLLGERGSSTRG

NPRC = target: T2, NPRC (Homo sapiens, UniProt P17342); details: cited from earlier work
T2 sequence (P17342 27-541): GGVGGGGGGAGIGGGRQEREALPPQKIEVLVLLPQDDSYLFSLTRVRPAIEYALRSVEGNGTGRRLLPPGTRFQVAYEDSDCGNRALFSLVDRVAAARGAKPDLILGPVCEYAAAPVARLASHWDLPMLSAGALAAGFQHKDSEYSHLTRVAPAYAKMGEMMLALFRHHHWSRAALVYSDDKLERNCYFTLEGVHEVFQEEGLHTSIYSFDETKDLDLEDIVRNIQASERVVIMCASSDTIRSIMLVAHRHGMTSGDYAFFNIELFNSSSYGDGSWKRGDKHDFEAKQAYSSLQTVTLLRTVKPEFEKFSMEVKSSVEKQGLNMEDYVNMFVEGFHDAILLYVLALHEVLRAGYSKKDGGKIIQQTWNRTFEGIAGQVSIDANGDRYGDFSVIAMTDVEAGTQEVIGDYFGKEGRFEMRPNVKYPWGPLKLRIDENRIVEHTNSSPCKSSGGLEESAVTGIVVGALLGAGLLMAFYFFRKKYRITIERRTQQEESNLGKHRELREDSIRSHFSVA

Substance	Optical Densities in 96_Well Plate, Average ([1]; peptide 0.01 μM)	Optical Densities in 96_Well Plate ([1]; peptide 0.01 μM)	Optical Densities in 96_Well Plate, Average ([1]; peptide 0.03 μM)	Optical Densities in 96_Well Plate ([1]; peptide 0.03 μM)	Optical Densities in 96_Well Plate, Average ([1]; peptide 0.1 μM)	Optical Densities in 96_Well Plate ([1]; peptide 0.1 μM)	Optical Densities in 96_Well Plate, Average ([1]; peptide 0.3 μM)	Optical Densities in 96_Well Plate ([1]; peptide 0.3 μM)	Optical Densities in 96_Well Plate, Average ([1]; peptide 1.0 μM)	Optical Densities in 96_Well Plate ([1]; peptide 1.0 μM)	anticancer activity / relative potency (cancer cells)	binding affinity at NPRA (NPRA)	binding affinity at NPRC (NPRC)
AGAALSPL [Ala-8-Leu, ID NO:85]	0.937	0.744 and 0.878 and 1.000 and 0.892 and 1.169	0.976	0.892 and 0.937 and 0.989 and 0.921 and 1.139	0.991	0.832 and 1.006 and 1.031 and 0.910 and 1.174	1.002	0.784 and 0.802 and 0.998 and 1.357 and 1.070	0.985	0.732 and 1.216 and 0.954 and 0.834 and 1.189	–	–	–
PNEEAGAALSPLPEV [Pro-15-Val, ID NO:121]	0.916	0.907 and 0.905 and 0.633 and 1.209 and 0.928	0.894	0.892 and 0.765 and 0.693 and 1.151 and 0.970	0.918	0.680 and 0.895 and 0.893 and 1.156 and 0.964	0.916	0.875 and 0.817 and 0.855 and 1.024 and 1.010	0.948	0.856 and 0.752 and 0.802 and 1.083 and 1.248	–	–	–
EVVPPQVLSEPNEEAGAALSPLPEVPPWTGEVSPAQR [KT-220 (VDL), ID NO:125]	–	–	–	–	–	–	–	–	–	–	have anticancer activity	–	–
RSSCFGGRIDRIGAC [C-ANP 4-23, ID NO:124, reference compound]	0.938	0.877 and 0.971 and 0.953 and 0.932 and 0.958	0.932	0.905 and 0.882 and 0.981 and 0.948 and 0.943	0.942	0.758 and 1.027 and 0.983 and 0.960 and 0.982	0.942	0.840 and 0.928 and 1.035 and 0.975 and 0.932	0.925	0.865 and 0.925 and 0.900 and 0.955 and 0.981	have anticancer activity	–	–
ANP: Natriuretic peptide; Table III sequence SLRRSSCFGGRMDRIGAQSGLGCNSFRY, SEQ ID NO:126 [reference compound]	0.908	0.981 and 0.815 and 0.822 and 0.965 and 0.955	0.935	0.948 and 0.882 and 0.911 and 0.951 and 0.982	0.838	0.884 and 0.889 and 0.907 and 0.862 and 0.650	0.974	1.001 and 0.889 and 0.837 and 0.934 and 1.209	0.914	1.018 and 0.819 and 0.954 and 0.829 and 0.951	greater potency observed for ANP than CNP; also recorded: have anticancer activity	higher binding affinities	higher binding affinities
RSSCAGAALSPLGAC [Arg-15-Cys, ID NO:122]	0.934	0.974 and 0.920 and 0.863 and 0.840 and 1.075	0.982	1.093 and 0.894 and 0.789 and 0.955 and 1.178	0.950	1.016 and 0.917 and 0.801 and 0.990 and 1.025	0.897	0.988 and 0.957 and 0.668 and 0.913 and 0.959	0.962	1.155 and 1.005 and 0.787 and 0.944 and 0.919	–	–	–
